Assay results taken from patent EP1247803A2, “Indolinone compounds suitable for modulation of protein kinases” (Sugen, Inc., priority 1996, dated 1998).

How the values were obtained:
[1] = biological target: PDGF-R (Homo sapiens, UniProt P09619); test: PDGF-R ELISA; type: cell-based
Excerpt: A PDGF-R ELISA is described in International Patent Publication No. WO 96/40116, published December 19, 1996 by Tang et al.

[2] = tested on: MET; test: MET biochemical kinase assay; set-up: species or system human; concentration or dose not given beside the values
Summary of the method: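 Immunocaptured MET autophosphorylation, read colorimetrically (TMB) via HRP anti-phosphotyrosine antibody. Kinase reaction initiated with buffer containing ATP and divalent metals after compound addition to plate-bound receptor from lysates.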

[3] = biological target: T1, EGFR (Homo sapiens, UniProt P00533); test: EGFR ELISA assay (in vitro kinase activity, EGFR captured from A431 cell lysate); type: biochemical; set-up: concentration or dose not given beside the values
T1 construct: Add 7 ug A431 cell lysate per well (EGFR source); endogenous in cells; host or cells: A431
Summary of the method: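 EGFR from A431 lysate was captured on plates coated with anti-EGFR antibody. Compounds were added 30 min before a 5 min phosphorylation with 3 µM ATP/5 mM MnCl2, which was stopped with 20 mM EDTA. Phosphotyrosine was detected with rabbit anti-phosphotyrosine, then a peroxidase-conjugated secondary and ABTS/H2O2, read at 410 nm.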

Chain of PDGF-R (P09619 33-1106, species assumed): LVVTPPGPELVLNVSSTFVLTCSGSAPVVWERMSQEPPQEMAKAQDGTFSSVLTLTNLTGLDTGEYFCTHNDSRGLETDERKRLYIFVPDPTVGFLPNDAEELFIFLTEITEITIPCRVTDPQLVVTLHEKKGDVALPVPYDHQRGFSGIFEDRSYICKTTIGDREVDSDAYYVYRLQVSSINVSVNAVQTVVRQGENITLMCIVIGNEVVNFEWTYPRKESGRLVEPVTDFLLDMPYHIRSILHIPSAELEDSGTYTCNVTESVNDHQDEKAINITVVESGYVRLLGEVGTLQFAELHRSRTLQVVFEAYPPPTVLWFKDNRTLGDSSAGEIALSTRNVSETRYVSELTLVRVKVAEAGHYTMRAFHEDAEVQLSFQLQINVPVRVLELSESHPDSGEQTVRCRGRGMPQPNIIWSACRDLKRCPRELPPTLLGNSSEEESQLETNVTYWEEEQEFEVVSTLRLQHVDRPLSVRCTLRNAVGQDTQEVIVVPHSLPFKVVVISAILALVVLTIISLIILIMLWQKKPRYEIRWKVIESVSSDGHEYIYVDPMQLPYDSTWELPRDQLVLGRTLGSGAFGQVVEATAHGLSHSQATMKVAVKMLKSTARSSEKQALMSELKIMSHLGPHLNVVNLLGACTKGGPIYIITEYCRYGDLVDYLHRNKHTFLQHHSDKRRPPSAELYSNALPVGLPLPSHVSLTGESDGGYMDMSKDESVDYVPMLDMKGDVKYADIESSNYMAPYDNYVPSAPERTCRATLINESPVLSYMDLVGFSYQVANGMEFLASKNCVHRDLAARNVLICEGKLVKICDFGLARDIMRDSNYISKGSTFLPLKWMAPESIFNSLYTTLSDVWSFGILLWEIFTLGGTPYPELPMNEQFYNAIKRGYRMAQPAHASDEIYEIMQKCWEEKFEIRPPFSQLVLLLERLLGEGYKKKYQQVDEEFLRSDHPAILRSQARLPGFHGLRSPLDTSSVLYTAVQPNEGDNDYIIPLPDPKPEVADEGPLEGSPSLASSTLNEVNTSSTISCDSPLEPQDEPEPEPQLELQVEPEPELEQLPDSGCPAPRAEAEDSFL
T1 sequence (P00533 25-1210): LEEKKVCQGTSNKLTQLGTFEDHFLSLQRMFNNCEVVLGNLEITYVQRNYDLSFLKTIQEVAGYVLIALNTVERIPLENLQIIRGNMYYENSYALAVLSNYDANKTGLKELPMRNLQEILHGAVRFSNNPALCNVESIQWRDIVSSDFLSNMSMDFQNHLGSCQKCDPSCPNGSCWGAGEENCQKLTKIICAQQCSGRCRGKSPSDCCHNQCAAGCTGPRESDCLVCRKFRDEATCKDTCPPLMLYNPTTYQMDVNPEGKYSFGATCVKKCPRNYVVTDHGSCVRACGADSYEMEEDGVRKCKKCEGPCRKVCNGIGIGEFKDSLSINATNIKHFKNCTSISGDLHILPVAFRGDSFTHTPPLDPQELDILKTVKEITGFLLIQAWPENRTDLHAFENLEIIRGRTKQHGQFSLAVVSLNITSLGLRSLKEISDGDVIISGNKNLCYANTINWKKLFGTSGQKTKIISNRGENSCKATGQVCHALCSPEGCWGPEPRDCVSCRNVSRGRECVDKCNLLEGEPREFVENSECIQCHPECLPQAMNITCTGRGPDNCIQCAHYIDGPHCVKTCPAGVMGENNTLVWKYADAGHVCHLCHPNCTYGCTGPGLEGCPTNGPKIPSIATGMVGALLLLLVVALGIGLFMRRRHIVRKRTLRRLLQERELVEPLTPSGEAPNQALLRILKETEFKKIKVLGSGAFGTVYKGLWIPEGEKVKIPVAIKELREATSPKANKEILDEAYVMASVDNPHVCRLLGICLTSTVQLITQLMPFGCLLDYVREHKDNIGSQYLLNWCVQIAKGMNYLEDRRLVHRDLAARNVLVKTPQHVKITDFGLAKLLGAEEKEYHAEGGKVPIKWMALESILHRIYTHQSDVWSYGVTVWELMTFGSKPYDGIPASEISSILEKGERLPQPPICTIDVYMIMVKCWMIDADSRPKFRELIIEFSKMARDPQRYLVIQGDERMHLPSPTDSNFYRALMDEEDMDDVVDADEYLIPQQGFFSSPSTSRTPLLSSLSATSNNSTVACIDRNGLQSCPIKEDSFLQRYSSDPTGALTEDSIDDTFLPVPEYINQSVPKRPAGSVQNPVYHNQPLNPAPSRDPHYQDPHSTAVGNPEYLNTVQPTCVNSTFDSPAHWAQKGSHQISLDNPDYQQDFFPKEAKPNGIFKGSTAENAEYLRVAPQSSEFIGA

Structure (SMILES): COc1cc(C)cc(O)c1C=C1C(=O)Nc2ccc(I)cc21 [10725/B06]
- PDGF Kinase %Inhibition [1]: 31.3%
- Met Kinase % Inhibition [2]: 53.3%
- Biochem EGFR %Inhibition [3]: -13.7%

Structure (SMILES): O=CN1CCN(c2ccc(C=C3C(=O)Nc4ccc(I)cc43)cc2)CC1 [10725/B07]
- PDGF Kinase %Inhibition [1]: 100.8%
- Met Kinase % Inhibition [2]: 74.0%
- Biochem EGFR %Inhibition [3]: 45.8%

Structure (SMILES): O=C1Nc2ccc(I)cc2C1=Cc1ccc(N2CCOCC2)cc1 [10725/B08]
- PDGF Kinase %Inhibition [1]: 29.4%
- Met Kinase % Inhibition [2]: 66.7%
- Biochem EGFR %Inhibition [3]: 41.8%

Structure (SMILES): COC(=O)Cc1c(Cl)[nH]c(C=C2C(=O)Nc3ccc(I)cc32)c1C(=O)OC [10725/B09]
- PDGF Kinase %Inhibition [1]: 43.8%
- Met Kinase % Inhibition [2]: 65.7%
- Biochem EGFR %Inhibition [3]: 72.3%

Structure (SMILES): O=C1Nc2ccc(I)cc2C1=Cc1c(Br)cnn1-c1ccc(Cl)cc1 [10725/B10]
- PDGF Kinase %Inhibition [1]: 26.0%
- Met Kinase % Inhibition [2]: 69.9%
- Biochem EGFR %Inhibition [3]: 53.3%

Structure (SMILES): O=C1Nc2ccc(I)cc2C1=Cc1c[nH]cn1 [10725/B11]
- PDGF Kinase %Inhibition [1]: 66.3%
- Met Kinase % Inhibition [2]: 76.3%
- Biochem EGFR %Inhibition [3]: 43.0%
